In PubChem BioAssay (NCI):
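In this assay, cells in 96-well plates receive the compound at five concentrations for 48 hours. Endpoints are linearly interpolated between the surrounding concentrations. TGI denotes the concentration required for complete inhibition of growth.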

How the values were obtained:
Test in all cases: NCI-60 cell line screen, 48 h
LOX IMVI melanoma = test system: LOX IMVI melanoma
786-0 renal = test system: 786-0 renal
MOLT-4 leukemia = test system: MOLT-4 leukemia
LXFL 529 NSCLC = test system: LXFL 529 NSCLC
OVCAR-8 ovarian = test system: OVCAR-8 ovarian
M19-MEL melanoma = test system: M19-MEL melanoma
OVCAR-3 ovarian = test system: OVCAR-3 ovarian
HOP-92 NSCLC = test system: HOP-92 NSCLC
HT29 colon = test system: HT29 colon
XF 498 CNS = test system: XF 498 CNS
EKVX NSCLC = test system: EKVX NSCLC
A549 NSCLC = test system: A549 NSCLC
SNB-19 CNS = test system: SNB-19 CNS
KM20L2 colon = test system: KM20L2 colon
TK-10 renal = test system: TK-10 renal
SN12C renal = test system: SN12C renal
MALME-3M melanoma = test system: MALME-3M melanoma
CCRF-CEM leukemia = test system: CCRF-CEM leukemia
NCI-H522 lung = test system: NCI-H522 lung
HOP-62 NSCLC = test system: HOP-62 NSCLC
K-562 leukemia = test system: K-562 leukemia
SK-MEL-2 melanoma = test system: SK-MEL-2 melanoma
SF-295 CNS = test system: SF-295 CNS
HOP-18 NSCLC = test system: HOP-18 NSCLC
SF-268 CNS = test system: SF-268 CNS
HCT-116 colon = test system: HCT-116 colon
NCI-H460 lung = test system: NCI-H460 lung
SK-OV-3 ovarian = test system: SK-OV-3 ovarian
HCC-2998 colon = test system: HCC-2998 colon
SW-620 colon = test system: SW-620 colon
OVCAR-4 ovarian = test system: OVCAR-4 ovarian
CAKI-1 renal = test system: CAKI-1 renal
OVCAR-5 ovarian = test system: OVCAR-5 ovarian
SNB-78 CNS = test system: SNB-78 CNS
RPMI-8226 leukemia = test system: RPMI-8226 leukemia
HCT-15 colon = test system: HCT-15 colon
M14 melanoma = test system: M14 melanoma
UACC-62 melanoma = test system: UACC-62 melanoma
KM12 colon = test system: KM12 colon
DMS 114 small cell lung = test system: DMS 114 small cell lung
IGROV1 ovarian = test system: IGROV1 ovarian
UO-31 renal = test system: UO-31 renal
DLD-1 colon = test system: DLD-1 colon
ACHN renal = test system: ACHN renal
COLO 205 colon = test system: COLO 205 colon
NCI-H226 lung = test system: NCI-H226 lung
NCI-H23 lung = test system: NCI-H23 lung
UACC-257 melanoma = test system: UACC-257 melanoma
HL-60(TB) leukemia = test system: HL-60(TB) leukemia
U251 CNS = test system: U251 CNS
DMS 273 small cell lung = test system: DMS 273 small cell lung
SF-539 CNS = test system: SF-539 CNS
A498 renal = test system: A498 renal
SR leukemia = test system: SR leukemia
SNB-75 CNS = test system: SNB-75 CNS
SK-MEL-5 melanoma = test system: SK-MEL-5 melanoma
SK-MEL-28 melanoma = test system: SK-MEL-28 melanoma

For O=C(CCc1cc(-c2ccccc2)nc(=S)[nH]1)N(Cc1ccccc1)Cc1ccccc1, the TGI (LOX IMVI melanoma) was > 100 µM, the TGI (786-0 renal) was > 100 µM and the TGI (MOLT-4 leukemia) was > 100 µM. The TGI (LXFL 529 NSCLC) was > 100 µM, the TGI (OVCAR-8 ovarian) was > 100 µM and the TGI (M19-MEL melanoma) was > 100 µM. For the same compound, the TGI (OVCAR-3 ovarian) was > 100 µM, the TGI (HOP-92 NSCLC) was > 100 µM and the TGI (HT29 colon) was > 100 µM. For the same compound, the TGI (XF 498 CNS) was > 100 µM, the TGI (EKVX NSCLC) was > 100 µM and the TGI (A549 NSCLC) was > 100 µM. The TGI (SNB-19 CNS) was > 100 µM, the TGI (KM20L2 colon) was > 100 µM and the TGI (TK-10 renal) was > 100 µM. For the same compound, the TGI (SN12C renal) was > 100 µM, the TGI (MALME-3M melanoma) was > 100 µM and the TGI (CCRF-CEM leukemia) was > 100 µM. The TGI (NCI-H522 lung) was > 100 µM, the TGI (HOP-62 NSCLC) was > 100 µM and the TGI (K-562 leukemia) was > 100 µM. The TGI (SK-MEL-2 melanoma) was > 100 µM, the TGI (SF-295 CNS) was > 100 µM and the TGI (HOP-18 NSCLC) was > 100 µM. For the same compound, the TGI (SF-268 CNS) was > 100 µM, the TGI (HCT-116 colon) was > 100 µM and the TGI (NCI-H460 lung) was > 100 µM. For the same compound, the TGI (SK-OV-3 ovarian) was > 100 µM, the TGI (HCC-2998 colon) was > 100 µM and the TGI (SW-620 colon) was > 100 µM. For the same compound, the TGI (OVCAR-4 ovarian) was > 100 µM, the TGI (CAKI-1 renal) was > 100 µM and the TGI (OVCAR-5 ovarian) was > 100 µM. The TGI (SNB-78 CNS) was > 100 µM, the TGI (RPMI-8226 leukemia) was > 100 µM and the TGI (HCT-15 colon) was > 100 µM. For the same compound, the TGI (M14 melanoma) was > 100 µM, the TGI (UACC-62 melanoma) was > 100 µM and the TGI (KM12 colon) was > 100 µM. For the same compound, the TGI (DMS 114 small cell lung) was > 100 µM, the TGI (IGROV1 ovarian) was > 100 µM and the TGI (UO-31 renal) was > 100 µM. The TGI (DLD-1 colon) was > 100 µM, the TGI (ACHN renal) was > 100 µM and the TGI (COLO 205 colon) was > 100 µM. For the same compound, the TGI (NCI-H226 lung) was > 100 µM, the TGI (NCI-H23 lung) was > 100 µM and the TGI (UACC-257 melanoma) was > 100 µM. The TGI (HL-60(TB) leukemia) was > 100 µM, the TGI (U251 CNS) was > 100 µM and the TGI (DMS 273 small cell lung) was > 100 µM. The TGI (SF-539 CNS) was > 100 µM and the TGI (A498 renal) was > 100 µM.

For O=C(CCN(C(=O)O)S(=O)(=O)c1ccc(NC(=O)c2ccccc2)cc1)NC1CCCCC1, the TGI (LOX IMVI melanoma) was > 100 µM, the TGI (SR leukemia) was > 100 µM and the TGI (786-0 renal) was 31.7 µM. For the same compound, the TGI (MOLT-4 leukemia) was 45.9 µM, the TGI (LXFL 529 NSCLC) was > 100 µM and the TGI (OVCAR-8 ovarian) was > 100 µM. The TGI (SNB-75 CNS) was > 100 µM, the TGI (M19-MEL melanoma) was > 100 µM and the TGI (OVCAR-3 ovarian) was > 100 µM. For the same compound, the TGI (HOP-92 NSCLC) was > 100 µM, the TGI (HT29 colon) was 56.8 µM and the TGI (XF 498 CNS) was > 100 µM. The TGI (EKVX NSCLC) was > 100 µM, the TGI (A549 NSCLC) was > 100 µM and the TGI (SNB-19 CNS) was > 100 µM. For the same compound, the TGI (KM20L2 colon) was > 100 µM, the TGI (TK-10 renal) was > 100 µM and the TGI (SN12C renal) was > 100 µM. The TGI (MALME-3M melanoma) was > 100 µM, the TGI (CCRF-CEM leukemia) was > 100 µM and the TGI (NCI-H522 lung) was > 100 µM. The TGI (HOP-62 NSCLC) was > 100 µM, the TGI (K-562 leukemia) was > 100 µM and the TGI (SK-MEL-5 melanoma) was > 100 µM. For the same compound, the TGI (SK-MEL-2 melanoma) was > 100 µM, the TGI (SF-295 CNS) was > 100 µM and the TGI (HOP-18 NSCLC) was > 100 µM. For the same compound, the TGI (SF-268 CNS) was > 100 µM, the TGI (HCT-116 colon) was > 100 µM and the TGI (NCI-H460 lung) was > 100 µM. For the same compound, the TGI (SK-OV-3 ovarian) was > 100 µM, the TGI (HCC-2998 colon) was > 100 µM and the TGI (SW-620 colon) was 33.1 µM. The TGI (OVCAR-4 ovarian) was > 100 µM, the TGI (CAKI-1 renal) was > 100 µM and the TGI (OVCAR-5 ovarian) was > 100 µM. For the same compound, the TGI (SNB-78 CNS) was > 100 µM, the TGI (RPMI-8226 leukemia) was 41.8 µM and the TGI (SK-MEL-28 melanoma) was > 100 µM. The TGI (HCT-15 colon) was > 100 µM, the TGI (M14 melanoma) was > 100 µM and the TGI (UACC-62 melanoma) was > 100 µM. The TGI (KM12 colon) was > 100 µM, the TGI (DMS 114 small cell lung) was > 100 µM and the TGI (IGROV1 ovarian) was > 100 µM. For the same compound, the TGI (UO-31 renal) was > 100 µM, the TGI (DLD-1 colon) was > 100 µM and the TGI (ACHN renal) was > 100 µM. For the same compound, the TGI (COLO 205 colon) was > 100 µM, the TGI (NCI-H226 lung) was > 100 µM and the TGI (NCI-H23 lung) was > 100 µM. For the same compound, the TGI (UACC-257 melanoma) was > 100 µM, the TGI (HL-60(TB) leukemia) was 94.6 µM and the TGI (U251 CNS) was > 100 µM. For the same compound, the TGI (DMS 273 small cell lung) was > 100 µM, the TGI (SF-539 CNS) was > 100 µM and the TGI (A498 renal) was > 100 µM.
